From paper PMC12040169 (PLOS Biology, 2025)

Assay: in vitro
Conditions: human, hela cells, % viability

Row | SMILES | viability at 28.5 h, 10 µM [%]
1 | O=C(CCN1C(=O)c2ccccc2C1=O)NC(=S)Nc1ccccc1 [CBK267595] | 108
2 | CCOC(=O)c1cc(CC)sc1NC(=O)c1cc2ccccc2o1 [CBK267596] | 88.3
3 | O=C(CSc1nnc(-c2cccnc2)n1-c1cccc(C(F)(F)F)c1)c1ccc(F)cc1 [CBK267599] | 87.9
4 | CCOC(=O)c1ccc(Nc2nnc3nc(C)cc(C)n23)cc1 [CBK267600] | 93.1
5 | Cc1cc(C)n2c(Nc3ccc(S(N)(=O)=O)cc3)nnc2n1 [CBK267601] | 110
6 | CS(=O)(=O)N1CCN(c2ccccc2NC(=O)Cc2ccc(Cl)cc2)CC1 [CBK267605] | 94.9
7 | CCN1CCN(c2c(Cl)cccc2NC(=O)CSc2ccc(Cl)cc2)CC1 [CBK267606] | 90.7
8 | CC(C)C(=O)N1CCN(c2ccccc2NC(=O)c2ccc(N3CCCCC3)c([N+](=O)[O-])c2)CC1 [CBK267609] | 100
9 | Cc1ccc2[nH]c(/C(C#N)=C\c3cc(C)n(-c4ccc(S(N)(=O)=O)cc4)c3C)nc2c1 [CBK267611] | 105
10 | COc1ccc(S(=O)(=O)N2CCC(C(=O)NCc3cccnc3)CC2)cc1Cl [CBK267613] | 95.2
11 | COc1ccc(S(=O)(=O)N2CCC(C(=O)N3CCN(Cc4ccc5c(c4)OCO5)CC3)CC2)cc1Cl [CBK267614] | 86
12 | O=C(COc1ccc(S(=O)(=O)NC2CCCCC2)cc1Cl)Nc1ccc2c(c1)OCO2 [CBK267615] | 90.5
13 | Cc1ccc(NS(=O)(=O)c2ccc(CCC(=O)N3CCc4ccccc4C3)cc2)cc1 [CBK267616] | 94.9
14 | CCOc1ccc(CNc2ccc(CNc3ncn[nH]3)cc2)cc1 [CBK267617] | 91.7
15 | C=CCOc1cccc(CNc2nn[nH]n2)c1 [CBK267618] | 109
16 | Oc1cccc(C(O)CNCc2ccc(OCc3ccc(Cl)cc3Cl)cc2)c1 (stereo not shown) [CBK267621C] | 93
17 | O=C(Nc1ccc(NC(=O)Nc2cccc(Cl)c2)cc1)Nc1cccc(Cl)c1 [CBK267623] | 93.9
18 | CC1CCc2c(sc(NC(=O)c3nc4ncccn4n3)c2C(N)=O)C1 (stereo not shown) [CBK267631] | 96.3
19 | CC1CC(C(F)F)n2nc(C(=O)O)nc2N1 (stereo not shown) [CBK267636] | 99.7
20 | COc1cc(NC(=O)Cn2c(-c3cncs3)nc3ccccc32)cc(OC)c1OC [CBK267640] | 97.2
21 | CC(NC(=O)c1cccc2ccccc12)c1ccc2ccccc2c1 (stereo not shown) [CBK267646] | 90.1

Row | SMILES | viability at 28.5 h, 10 µM [%]
22 | Nc1nonc1-c1nc2ccccc2n1Cc1ccc(-c2nn[nH]n2)cc1 [CBK267648] | 91.3
23 | Cc1ccccc1NS(=O)(=O)c1ccc(OCC(=O)N2CCN(c3cc(Cl)ccc3C)CC2)cc1 [CBK267649] | 94.5
24 | O=C(CSc1nnc(-c2ccc(Cl)cc2Cl)[nH]1)Nc1ccc(F)cc1 [CBK267651] | 96.4
25 | O=C(C1CCCN(S(=O)(=O)c2ccc(F)cc2)C1)N(Cc1ccccc1)Cc1ccccc1 (stereo not shown) [CBK267652] | 108
26 | N#Cc1c(NC(=O)CSc2nnc(-c3ccc(Cl)cc3)o2)oc(-c2ccccc2)c1-c1ccccc1 [CBK267655] | 93.9
27 | CC(C)C(NS(=O)(=O)c1ccc([N+](=O)[O-])cc1)C(C)C [CBK267656] | 94.8
28 | CC(NS(=O)(=O)c1ccc(F)cc1)C(=O)Nc1ccc(C(N)=O)cc1 (stereo not shown) [CBK267658] | 104
29 | CN(C)S(=O)(=O)N(CC(=O)O)c1ccccc1 [CBK267660] | 105
30 | Cc1ccc2c(C)c(C(=O)Nc3ccc(S(N)(=O)=O)cc3)oc2c1 [CBK267661] | 110
31 | Cc1ccc2c(C)c(C(=O)Nc3sc4c(c3C(=O)NCc3ccco3)CCC4)oc2c1 [CBK267662] | 99.2
32 | Cc1c(C(=O)Nc2ccc(S(=O)(=O)N3CCCCCC3)cc2)oc2ccc(Cl)cc12 [CBK267664] | 89.2
33 | NC(=O)Cn1c(=O)n(CCc2ccccc2)c(=O)c2c3c(sc21)CCCC3 [CBK267665] | 103
34 | COC(=O)Cn1c(=O)n(CCc2ccccc2)c(=O)c2c3c(sc21)CCCC3 [CBK267666] | 98.6
35 | COc1ccc(CNc2oc(-c3ccccc3)nc2S(=O)(=O)c2ccccc2)cc1 [CBK267669] | 105
36 | CC(Nc1oc(-c2ccco2)nc1S(=O)(=O)c1ccc(F)cc1)c1ccccc1 (stereo not shown) [CBK267671] | 73.2
37 | O=C(O)CCC(=O)Nc1ccccc1C(=O)NC1CCCCC1 [CBK267674] | 105
38 | O=C(NC1CCCCC1)c1ccccc1NC(=O)C1CCCCC1C(=O)O (stereo not shown) [CBK267675] | 97
39 | Cc1ccccc1C(=O)NCCNC(=O)c1nonc1N [CBK267677] | 103
40 | Cc1ccc(SCC(=O)NCCCN2CCOCC2)cc1 [CBK267678] | 99.3
41 | NC(=O)c1ccccc1NC(=O)CCCN1C(=O)CCC1=O [CBK267680] | 94.1
42 | O=C(CCCCCN1C(=O)CCC1=O)Nc1nc[nH]n1 [CBK267682] | 103

Row | SMILES | viability at 28.5 h, 10 µM [%]
43 | COc1ccc(/C(N)=N/OC(=O)CN(C)S(=O)(=O)c2ccccc2)cc1 [CBK267683] | 93
44 | O=C(CCn1cnc2ccccc2c1=O)Nc1cccc(C(F)(F)F)c1 [CBK267687] | 91.5
45 | CCOC(=O)c1ccc(Cn2c(-c3ccccc3)nnc2-c2ccccc2)o1 [CBK267691] | 87.8
46 | Cn1c(=O)c2c(nc(SCC(=O)CSc3nc4c(c(=O)n(C)c(=O)n4C)n3C)n2C)n(C)c1=O [CBK267692] | 86.9
47 | NS(=O)(=O)c1ccc(NC(=O)CCC2COc3ccccc3O2)cc1 (stereo not shown) [CBK267696] | 87.9
48 | COc1ccc(C(=O)NNS(=O)(=O)N(C)C)cc1OC [CBK267697] | 99.1
49 | CCOC(=O)c1c(-c2ccc(C)o2)csc1NC(=O)CN1C(=O)c2ccccc2C1=O [CBK267699] | 85.1
50 | CC(C)(O)C#Cc1ccc(C(=O)NC(CSCc2ccccc2)C(=O)O)s1 (stereo not shown) [CBK267705] | 98.4
51 | N=C(N)NC(=N)NCCc1c[nH]c2ccccc12 [CBK267706G] | 89.3
52 | Cn1c(=O)c2c(nc(N3CCOCC3)n2CC/N=C2/CCCN2)n(C)c1=O [CBK267709C] | 85.9
53 | CN(C)CCn1c2c(c3ccccc31)CCCn1nnnc1-2 [CBK267713C] | 94.8
54 | Cc1ccc(-n2c(SCC(=O)NC(C)Cc3ccccc3)nc3sc4c(c3c2=O)CC(C)(C)OC4)cc1 (stereo not shown) [CBK267714] | 94.7
55 | CSc1nc(SCC(=O)N(c2ccccc2)c2ccccc2)c2c3c(sc2n1)CCC3 [CBK267715] | 90.6
56 | CC(NS(=O)(=O)c1cccc2c(S(=O)(=O)NC(C)c3ccccc3)cccc12)c1ccccc1 (stereo not shown) [CBK267717] | 83.6
57 | O=C(Nc1cccc(S(=O)(=O)N2CCOCC2)c1)c1cc(-c2cccnc2)nc2ccc(Cl)cc12 [CBK267720] | 98
58 | COc1cc2c(cc1NC(=O)c1cc(-c3cccnc3)nc3ccc(C)cc13)oc1ccccc12 [CBK267722] | 92.1
59 | O=C(Nc1ccc(N2CCOCC2)c2nonc12)c1cc(-c2cccnc2)nc2ccc(Cl)cc12 [CBK267724] | 89.8
60 | O=C(Nc1ccc(C(=O)N2CCOCC2)cc1)c1cc(-c2cccnc2)nc2ccc(Cl)cc12 [CBK267725] | 93
61 | NS(=O)(=O)c1ccc(CNC(=O)c2cc(-c3cccnc3)nc3ccc(Cl)cc23)cc1 [CBK267727] | 83.8
62 | CN(C)CCNC(=O)c1cc(-c2ccncc2)nc2ccc(Br)cc12 [CBK267728] | 103
63 | CN1CCN(NC(=O)c2cc(-c3cccnc3)nc3ccc(Cl)cc23)CC1 [CBK267729] | 110

Row | SMILES | viability at 28.5 h, 10 µM [%]
64 | CN1CCN(S(=O)(=O)c2ccc(NC(=O)c3cc(-c4ccncc4)nc4ccc(Cl)cc34)cc2)CC1 [CBK267730] | 98.6
65 | Cc1c(Cl)ccc2c(C(=O)NCCCn3cc(Br)cn3)cc(-c3ccncc3)nc12 [CBK267731] | 95.1
66 | Cc1ccc2nc(-c3ccncc3)cc(C(=O)Nc3ccc(C(F)(F)F)cc3)c2c1 [CBK267732] | 91.6
67 | CN1CCN(S(=O)(=O)c2ccc(NC(=O)c3cc(-c4cccnc4)nc4ccc(Cl)cc34)cc2)CC1 [CBK267734] | 94.2
68 | CNS(=O)(=O)c1ccc(NC(=O)c2cc(-c3ccc4c(c3)OCO4)nc3ccccc23)cc1 [CBK267735] | 99
69 | Cc1ccc2nc(-c3ccncc3)cc(C(=O)N3CCN(C4CCCCC4)CC3)c2c1 [CBK267736] | 96.4
70 | Cc1cc(-c2cc(C(=O)NN3CCN(C)CC3)c3cc(Cl)ccc3n2)c(C)s1 [CBK267738] | 102
71 | NS(=O)(=O)c1ccc(CNC(=O)c2cc(-c3cccnc3)nc3ccc(Br)cc23)cc1 [CBK267740] | 96.9
72 | Cc1ccccc1-c1cc(C(=O)Nc2ccc(S(N)(=O)=O)cc2)c2cc(Cl)ccc2n1 [CBK267741] | 90
73 | Cc1cccc2c(C(=O)NCc3ccc(S(N)(=O)=O)cc3)cc(-c3ccccc3Cl)nc12 [CBK267743] | 93
74 | CC1CCc2c(sc(NC(=O)c3cc(-c4ccccn4)nc4c(Cl)cccc34)c2C(N)=O)C1 (stereo not shown) [CBK267744] | 94.1
75 | CC(=O)Nc1cccc(NC(=O)c2cc(-c3ccccn3)nc3ccc(Cl)cc23)c1 [CBK267747] | 95.1
76 | O=C(c1cc(-c2ccncc2)nc2ccc(Cl)cc12)N1CCN(c2ccc([N+](=O)[O-])cc2)CC1 [CBK267748] | 83.8
77 | COc1ccc(S(=O)(=O)N2CCN(C(=O)c3cc(-c4ccncc4)nc4ccc(Br)cc34)CC2)cc1 [CBK267750] | 101
78 | Cc1ccc2nc(-c3ccncc3)cc(C(=O)N3CCN(c4ncccn4)CC3)c2c1 [CBK267751] | 93
79 | O=C(c1cc(-c2ccncc2)nc2ccc(Cl)cc12)N1CCN(C/C=C/c2ccccc2)CC1 [CBK267754] | 106
80 | CC(CN1CCCCC1)NC(=O)c1cc(-c2ccncc2)nc2ccc(Br)cc12 (stereo not shown) [CBK267756] | 90.6
81 | Cc1ccccc1-c1cc(C(=O)NCCCn2cc(Br)cn2)c2ccccc2n1 [CBK267758] | 97.8
82 | CN(C)CCNC(=O)c1cc(-c2cccnc2)nc2c(Cl)cccc12 [CBK267761] | 112
